Some test systems named below: KM12 colon; HOP-92 NSCLC; BT-549 breast; NCI/ADR-RES ovarian; OVCAR-8 ovarian; UO-31 renal; SF-268 CNS; IGROV1 ovarian; DU-145 prostate; HCC-2998 colon.
Experiment in all cases: NCI tumour cell line growth inhibition, 48 h

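Growth conditions: 96-well plates. Treatment: test compound, 48 hours, 5 concentrations. Analysis: linear interpolation between bracketing concentrations; unreached endpoints set to highest concentration. TGI denotes the concentration required for complete inhibition of growth.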

On to `OC1(c2cc3ccccc3s2)CCCCC1`, for which the TGI in the experiment on KM12 colon, with HOP-92 NSCLC, with BT-549 breast, in the experiment with NCI/ADR-RES ovarian, in the experiment on OVCAR-8 ovarian and in the experiment on UO-31 renal was above 100 µM throughout. The TGI with SF-268 CNS is 93.6 µM; with IGROV1 ovarian, above 100 µM; with DU-145 prostate, above 100 µM; with HCC-2998 colon, above 100 µM.
Take `[N-]=[N+]=NCc1cccc(Nc2cc(=O)[nH]c(=O)[nH]2)c1`: the TGI with KM12 colon, in the experiment with HOP-92 NSCLC, in the experiment on BT-549 breast, with NCI/ADR-RES ovarian, in the experiment with OVCAR-8 ovarian and in the experiment on UO-31 renal was above 100 µM in each case. Also, the TGI with SF-268 CNS, with IGROV1 ovarian, in the experiment on DU-145 prostate and with HCC-2998 colon was above 100 µM each time.
For `Cc1[nH]c2ccccc2c1C=Nc1ccc(N=Cc2c(C)[nH]c3ccccc23)cc1`, the TGI was 32.3 µM with KM12 colon; above 100 µM in the experiment with HOP-92 NSCLC; above 100 µM in the experiment with BT-549 breast; above 100 µM with NCI/ADR-RES ovarian; above 100 µM in the experiment on OVCAR-8 ovarian; above 100 µM in the experiment with UO-31 renal. The TGI in the experiment with SF-268 CNS, in the experiment on IGROV1 ovarian, in the experiment with DU-145 prostate and with HCC-2998 colon was above 100 µM in each case.
Consider `CC(C)c1ccc(/C=C2\CSCC3=C2NC(=S)NC3c2ccc(C(C)C)cc2)cc1` (stereo not given), for which the TGI in the experiment with KM12 colon, in the experiment with HOP-92 NSCLC, with BT-549 breast, with NCI/ADR-RES ovarian, in the experiment with OVCAR-8 ovarian and in the experiment on UO-31 renal was above 100 µM each time. Further, the TGI in the experiment with SF-268 CNS, in the experiment on IGROV1 ovarian, in the experiment with DU-145 prostate and with HCC-2998 colon was above 100 µM each time.
As for `NC(=O)c1ccc2c(c1)S(=O)(=O)c1ccccc1C2=O`, the TGI in the experiment with KM12 colon, in the experiment with HOP-92 NSCLC, in the experiment on BT-549 breast, in the experiment with NCI/ADR-RES ovarian, in the experiment on OVCAR-8 ovarian and in the experiment with UO-31 renal was above 100 µM throughout. Moreover, the TGI with SF-268 CNS, in the experiment with IGROV1 ovarian, with DU-145 prostate and in the experiment on HCC-2998 colon was above 100 µM each time.
`CCOc1nc(-c2ccccc2)cc(-c2ccc(N3CCOCC3)cc2)c1C#N`: the TGI with KM12 colon, in the experiment with HOP-92 NSCLC, in the experiment with BT-549 breast, with NCI/ADR-RES ovarian, in the experiment with OVCAR-8 ovarian and with UO-31 renal was above 100 µM in each case. Besides, the TGI with SF-268 CNS, in the experiment on IGROV1 ovarian, in the experiment with DU-145 prostate and in the experiment with HCC-2998 colon was above 100 µM throughout.
For `C(=C\c1ccccc1)/C=N/c1nc2cc3sc(/N=C/C=C/c4ccccc4)nc3cc2s1`, the TGI in the experiment on KM12 colon, in the experiment on HOP-92 NSCLC, in the experiment on BT-549 breast, in the experiment on NCI/ADR-RES ovarian, in the experiment with OVCAR-8 ovarian and with UO-31 renal was above 100 µM in each case. The TGI with SF-268 CNS, in the experiment with IGROV1 ovarian, in the experiment with DU-145 prostate and with HCC-2998 colon was above 100 µM each time.
Take `CN(C)CCNC(=O)c1cccc2nc3c(nc12)-c1ccccc1C3=O`: the TGI in the experiment on KM12 colon came out at 33.2 µM; in the experiment on HOP-92 NSCLC it was 40.9 µM; with BT-549 breast, 29.7 µM; with NCI/ADR-RES ovarian, 39.3 µM; with OVCAR-8 ovarian, 62.7 µM; in the experiment on UO-31 renal, 39.1 µM. Moreover, the TGI was 32.2 µM with SF-268 CNS, above 71.1 µM in the experiment on IGROV1 ovarian, 70 µM in the experiment on DU-145 prostate and 38.1 µM in the experiment with HCC-2998 colon.
With `CCOC(=O)/C=C(/C(=O)OCC)n1cc(C)c(=O)n(Cc2cn(COCCOC(C)=O)nn2)c1=O`, the TGI with KM12 colon was above 62.9 µM; in the experiment with HOP-92 NSCLC, 28.8 µM; in the experiment with BT-549 breast it was 37.9 µM; in the experiment on NCI/ADR-RES ovarian it was 67.9 µM; in the experiment on OVCAR-8 ovarian, 32.7 µM; in the experiment on UO-31 renal, 7.99 µM. Besides, the TGI with SF-268 CNS is 48.2 µM; in the experiment on IGROV1 ovarian it was 32.1 µM; with DU-145 prostate, above 90.2 µM; in the experiment on HCC-2998 colon, 37.6 µM.
For `CC(C)(C)C1(COC(=O)c2ccc(N)cc2)COC1`, the TGI with KM12 colon, in the experiment on HOP-92 NSCLC, in the experiment on BT-549 breast, in the experiment on NCI/ADR-RES ovarian, in the experiment with OVCAR-8 ovarian and in the experiment with UO-31 renal was above 100 µM each time. For the same molecule, the TGI in the experiment with SF-268 CNS, in the experiment on IGROV1 ovarian, with DU-145 prostate and with HCC-2998 colon was above 100 µM in each case.
As for `O=C1C=C(Br)c2c(Br)sc(Br)c21`, the TGI with KM12 colon was 37.3 µM; in the experiment with HOP-92 NSCLC, 7.64 µM; with BT-549 breast, 17 µM; in the experiment on NCI/ADR-RES ovarian, above 53.8 µM; in the experiment on OVCAR-8 ovarian, 12.1 µM; with UO-31 renal it was 10.3 µM. The TGI was above 57.3 µM with SF-268 CNS, 16.5 µM in the experiment on IGROV1 ovarian, 29 µM in the experiment on DU-145 prostate and 28.1 µM in the experiment on HCC-2998 colon.
Take `CC(CO)C1C[C@H](O)[C@@]2(C)CC(=O)C=C(CO)[C@@H]2C1` (stereo not given in full): the TGI with KM12 colon, in the experiment on HOP-92 NSCLC, in the experiment with BT-549 breast, with NCI/ADR-RES ovarian, in the experiment on OVCAR-8 ovarian and in the experiment with UO-31 renal was above 100 µM in each case. Further, the TGI with SF-268 CNS, in the experiment on IGROV1 ovarian, in the experiment with DU-145 prostate and in the experiment on HCC-2998 colon was above 100 µM each time.
On to `Cc1sc(/N=C/c2c[nH]c3ccccc23)c(C#N)c1C`, for which the TGI in the experiment on KM12 colon, with HOP-92 NSCLC, in the experiment on BT-549 breast, in the experiment with NCI/ADR-RES ovarian, in the experiment on OVCAR-8 ovarian and in the experiment on UO-31 renal was above 100 µM in each case. Also, the TGI in the experiment on SF-268 CNS is above 100 µM; in the experiment on IGROV1 ovarian it was above 100 µM; in the experiment on DU-145 prostate, above 100 µM; in the experiment with HCC-2998 colon, 70.5 µM.
In the case of `C=CCSC1=N/C(=C\c2ccccc2)C(=O)N1CC=C`, the TGI was above 100 µM in the experiment with KM12 colon; above 78.1 µM in the experiment with HOP-92 NSCLC; above 100 µM in the experiment on BT-549 breast; above 100 µM in the experiment on NCI/ADR-RES ovarian; above 100 µM in the experiment with OVCAR-8 ovarian; above 100 µM with UO-31 renal. Besides, the TGI is above 57.7 µM in the experiment on SF-268 CNS, above 100 µM in the experiment with IGROV1 ovarian, above 100 µM with DU-145 prostate and above 100 µM in the experiment with HCC-2998 colon.
Consider `CCCCc1ccc(Nc2ncc3[nH]cnc3n2)cc1`, for which the TGI in the experiment with KM12 colon worked out at 45 µM; with HOP-92 NSCLC, 49.7 µM; with BT-549 breast it was 52.8 µM; with NCI/ADR-RES ovarian, 46 µM; in the experiment with OVCAR-8 ovarian it was 36.3 µM; with UO-31 renal it was 37.9 µM. For the same molecule, the TGI was determined as 50.1 µM in the experiment on SF-268 CNS, 39.6 µM in the experiment with IGROV1 ovarian, 30.6 µM with DU-145 prostate and 37.8 µM in the experiment with HCC-2998 colon.
For `O=C1/C(=C/c2ccccc2[N+](=O)[O-])N=C(c2ccccc2)N1C1Nc2cc3c(cc2S1)NC(N1C(=O)/C(=C/c2ccccc2[N+](=O)[O-])N=C1c1ccccc1)S3` (stereo not given), the TGI with KM12 colon was above 100 µM; with HOP-92 NSCLC, above 100 µM; in the experiment with BT-549 breast it was above 100 µM; in the experiment on NCI/ADR-RES ovarian, 97.4 µM; in the experiment with OVCAR-8 ovarian, above 100 µM; with UO-31 renal it was above 100 µM. The TGI with SF-268 CNS is above 100 µM; in the experiment with IGROV1 ovarian, above 100 µM; in the experiment on DU-145 prostate, above 100 µM; with HCC-2998 colon, 38.1 µM.

The values are drawn from PubChem BioAssay (NCI).
